Measurements: patent US9512107B2, “Therapeutically active compositions and their methods of use” (Agios Pharmaceuticals, Inc., priority 2012, dated 2016)
Positions count from the first letter of the chain named. Where two headings read alike, the source gives them in different places.

Tests used:
[1] = target: T1, IDH2 R172K (Homo sapiens, UniProt P48735, R172K); test: IDH2 R172K enzymatic assay (NADPH cofactor depletion, diaphorase/resazurin readout); format: biochemical; details: read-out: Enz R172K
T1 sequence (P48735 40-452 R172K): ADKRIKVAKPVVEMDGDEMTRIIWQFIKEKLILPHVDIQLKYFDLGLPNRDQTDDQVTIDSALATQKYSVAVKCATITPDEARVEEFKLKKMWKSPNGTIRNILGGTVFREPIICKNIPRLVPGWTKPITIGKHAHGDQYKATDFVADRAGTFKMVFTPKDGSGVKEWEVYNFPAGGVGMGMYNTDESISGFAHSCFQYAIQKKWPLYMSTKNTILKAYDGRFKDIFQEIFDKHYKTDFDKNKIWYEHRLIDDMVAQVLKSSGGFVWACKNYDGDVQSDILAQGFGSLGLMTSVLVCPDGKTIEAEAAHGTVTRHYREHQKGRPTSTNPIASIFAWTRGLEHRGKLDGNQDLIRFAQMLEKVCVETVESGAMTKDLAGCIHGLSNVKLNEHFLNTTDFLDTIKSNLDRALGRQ
Method in brief: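 Compound was preincubated with IDH2 R172K for 1 h at room temperature, then the reaction was started with substrate mix containing 50 μM NADPH and 6.3 mM α-KG. After another 1 h at room temperature, stop mix with diaphorase and resazurin consumed the remaining NADPH, and resorufin fluorescence was read.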

[2] = target: T2, IDH2 R140Q (Homo sapiens, UniProt P48735, R140Q); test: IDH2 R140Q enzymatic assay (cofactor depletion, similar format); format: biochemical; details: read-out: Enz R140Q
T2 sequence (P48735 40-452 R140Q): T1 sequence (P48735 40-452 R172K) with R101Q, K133R

[3] = tested on: U87MG pLVX-IDH2 R140Q-neo cells; test: U87MG pLVX-IDH2 R140Q-neo cell based assay, 2-HG in media by LC-MS at 48 hours
Method in brief: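 U87MG cells stably expressing IDH2 R140Q were seeded overnight, then exposed to compound at 0.2% final DMSO at 37 °C, 5% CO2. 2-HG in the medium was quantified by LC-MS at 48 h. Growth inhibition was read by CellTiter-Glo luminescence at 72 h.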

Row | IC50 [1] | IC50 [2] | IC50 ([3]; Homo sapiens, U-87 MG) | IC50 [3] | Compound
1 | 100 to 1000 nM | 100 to 1000 nM | < 100 nM | – | CC(C)Nc1nc(Nc2ccc(F)nc2)nc(-c2nccc(C(F)(F)F)n2)n1 [Compound 535, N-(6-Fluoro-pyridin-3-yl)-N′-isopropyl-6-(4-trifluoromethyl-pyrimidin-2-yl)-[1,3,5]triazine-2,4-diamine]
2 | 100 to 1000 nM | 1000 to 10000 nM | < 100 nM | – | CC(C)Nc1nc(Nc2cncc(C(F)(F)F)c2)nc(-c2nccc(C(F)(F)F)n2)n1 [Compound 536, N-Isopropyl-N′-(5-trifluoromethyl-pyridin-3-yl)-6-(4-trifluoromethyl-pyrimidin-2-yl)-[1,3,5]triazine-2,4-diamine]
3 | < 100 nM | 100 to 1000 nM | < 100 nM | – | CC(C)Nc1nc(Nc2ccnc(F)c2)nc(-c2nccc(C(F)(F)F)n2)n1 [Compound 537, N-(2-Fluoro-pyridin-4-yl)-N′-isopropyl-6-(4-trifluoromethyl-pyrimidin-2-yl)-[1,3,5]triazine-2,4-diamine]
4 | 100 to 1000 nM | 1000 to 10000 nM | – | < 100 nM | CC(C)Nc1nc(Nc2ccnc(F)c2)nc(-c2nccc(C(F)(F)F)n2)n1 [Compound 538]
5 | 100 to 1000 nM | 100 to 1000 nM | < 100 nM | – | OC1(CNc2nc(Nc3cc(F)cc(F)c3)nc(-c3cccc(C(F)(F)F)n3)n2)CC1 [Compound 541, 1-{[4-(3,5-Difluoro-phenylamino)-6-(6-trifluoromethyl-pyridin-2-yl)-[1,3,5]triazin-2-ylamino]-methyl}-cyclopropanol]
6 | < 100 nM | 100 to 1000 nM | < 100 nM | – | CC(C)Nc1nc(Nc2cccc(C(C)(C)O)c2)nc(-c2cccc(C(F)(F)F)n2)n1 [Compound 542, 2-{3-[4-Isopropylamino-6-(6-trifluoromethyl-pyridin-2-yl)-[1,3,5]triazin-2-ylamino]-phenyl}-propan-2-ol]
7 | 100 to 1000 nM | 100 to 1000 nM | < 100 nM | – | Cn1cc(Nc2nc(Nc3ccnc(C(F)(F)F)c3)nc(-c3cccc(C(F)(F)F)n3)n2)cn1 [Compound 543, N-(1-Methyl-1H-pyrazol-4-yl)-6-(6-trifluoromethyl-pyridin-2-yl)-N′-(2-trifluoromethyl-pyridin-4-yl)-[1,3,5]triazine-2,4-diamine]
8 | 100 to 1000 nM | 100 to 1000 nM | < 100 nM | – | Cn1nccc1Nc1nc(Nc2ccnc(C(F)(F)F)c2)nc(-c2cccc(C(F)(F)F)n2)n1 [Compound 544, N-(2-Methyl-2H-pyrazol-3-yl)-6-(6-trifluoromethyl-pyridin-2-yl)-N′-(2-trifluoromethyl-pyridin-4-yl)-[1,3,5]triazine-2,4-diamine]
9 | 100 to 1000 nM | 100 to 1000 nM | < 100 nM | – | FC(F)(F)c1cc(Nc2nc(Nc3cncs3)nc(-c3cccc(C(F)(F)F)n3)n2)ccn1 [Compound 546, N2-(thiazol-5-yl)-6-(6-(trifluoromethyl)pyridin-2-yl)-N4-(2-(trifluoromethyl)pyridin-4-yl)-1,3,5-triazine-2,4-diamine]
10 | < 100 nM | 100 to 1000 nM | < 100 nM | – | FC(F)(F)c1cc(Nc2nc(NCC3CCOC3)nc(-c3cccc(C(F)(F)F)n3)n2)ccn1 (stereo not drawn) [Compound 547, N-(Tetrahydro-furan-3-ylmethyl)-N′-(2-trifluoromethyl-pyridin-4-yl)-6-(6-trifluoromethyl-pyridin-2-yl)-[1,3,5]triazine-2,4-diamine]
11 | 100 to 1000 nM | 100 to 1000 nM | < 100 nM | – | CC(O)C(C)Nc1nc(Nc2ccnc(C(F)(F)F)c2)nc(-c2cccc(C(F)(F)F)n2)n1 (stereo not drawn) [Compound 548, 3-[4-(6-Trifluoromethyl-pyridin-2-yl)-6-(2-trifluoromethyl-pyridin-4-ylamino)-[1,3,5]triazin-2-ylamino]-butan-2-ol]
12 | < 100 nM | 100 to 1000 nM | < 100 nM | – | CC1(Nc2nc(Nc3ccnc(C(F)(F)F)c3)nc(-c3cccc(C(F)(F)F)n3)n2)COC1 [Compound 549, N-(3-Methyl-oxetan-3-yl)-6-(6-trifluoromethyl-pyridin-2-yl)-N′-(2-trifluoromethyl-pyridin-4-yl)-[1,3,5]triazine-2,4-diamine]
